The results in this text go back to patent US10570176B2, “Anti-hepatitis B virus X protein polypeptide pharmaceutical” (priority 2015, dated 2020).

The test system of assay [1] is liver cancer HepAD38 cells integrated with HVB DNA. Kind of assay: HBeAg secretion ELISA in HepAD38 cells. As to conditions: for Inhibition of HBeAg secretion levels: 10 μM. The class given is cell-based. The procedure: (§1) 3. Analysis of function of D-TTK001 on HBeAg secreation in liver cancer cells utilizing enzyme-linked immunosorbent assay (ELISA)
(§2) (i) Biosafety cabinet was ultraviolet sterilized for 30 min and purged for 30 min; DMEM/F12 (1:1) culture medium containing 15% fetal bovine serum, HepAD38 cells (or HepG2.2.15 cells) were taken out, sterilized with 75% alcohol, and placed in the biosafety cabinet.
(§3) (ii) Under aseptic conditions, discard old culture medium, add 3 mL 1×PBS each time, wash twice, add 1 mL 0.25% trypsin, the cells were digested until cell rounding as observed in microscope. Add 5 mL culture medium, dispense cells, count with hemocytometer, and dilute with culture medium to a cell number of 1˜2×10^4 cells/mL.
(iii) Plating 96-well plate. Under aseptic conditions, discard old culture medium, add 3 mL 1×PBS each time, wash twice, add 1 mL 0.05% trypsin, the cells were digested until cell rounding as observed in microscope. Add 10 mL culture medium, dispense cells, count with hemocytometer, and dilute with DMEM/F12(1:1) culture medium, add 100 μL cell suspension into each well to a cell number of 1˜2×10^3 cells/mL. The outer-most wells are not added with cells. Culturing until cell attachment (usually 12 hrs.) and extension. Subsequent tests can be conducted when cells are in good condition.
(2) Applying D-TTK001 (or L-TTK001, i.e., anti-HBxP1#) to liver cancer HepAD38 cells (or HepG2.2.15 cells)
10 mM D-TTK001 (or L-TTK001) mother solution was serially diluted from high concentration to low concentration, added into liver cancer HepAD38 cells (or HepG2.2.15 cells) culture solution to obtain final concentrations of D-TTK001 (or L-TTK001) of 0.1 μM, 1 μM, 10 and 100 μM in respective groups. […]
(3) Applying ELISA to measure HBeAg content in HepAD38 cell (or HepG2.2.15 cell) culture medium
(i) Balancing: place HBeAg assay kit in room temperature for 30 min.
(ii) Preparing solution: dilute concentrated wash liquid for 25 times with purified water.
(iii) Taking out the plate: take out the reaction plate according to experimental requirements (3 wells for negative control, 1 well for positive control, and 1 well for blank control).
(iv) Adding sample: add 75 μL of test samples or negative/positive control into respective wells, gently shake and mix.
(v) Incubating: after sealed with microplate sealer, incubate at 37° C. for 60 min.
(vi) Adding enzyme: add 50 μL of enzyme conjugates into each well except for blank wells, gently shake and mix.
(vii) Incubating: after sealed with microplate sealer, incubate at 37° C. for 30 min.
(viii) Washing plate: remove microplate sealer carefully, manually wash plate for 5 times, pat dry.
(ix) Developing color: add 50 μL each of color-developing agent A and B liquid, gently shake and mix, develop color in dark placed at 37° C. for 30 min.
(§4) (x) Stopping: add 50 μL of stop solution into each well, gently shake and mix, measure the result in ten minutes. Set wavelength of microplate reader to 450 nm, measure OD value for each well after zero setting with blank wells.
The invention also investigates the role of the functional variants of the polypeptide and functional fragments thereof. The sequences as shown in the following table are artificially synthesized D-amino acid substituted sequences on the basis of L-TTK001 (i.e., anti-HBxP1#). The polypeptide fragments were artificially synthesized according to the sequences (method as above), and then, above-mentioned ELISA method was adopted to observe the change in the functions of the polypeptides.
For orientation: In an ELISA, binding on a coated surface is turned into a signal by an enzyme label.

In assay [2] the target is T1, HBx protein (Hepatitis B virus genotype D subtype ayw, UniProt P03165).
T1 construct: made in house
T1 sequence (P03165 whole entry): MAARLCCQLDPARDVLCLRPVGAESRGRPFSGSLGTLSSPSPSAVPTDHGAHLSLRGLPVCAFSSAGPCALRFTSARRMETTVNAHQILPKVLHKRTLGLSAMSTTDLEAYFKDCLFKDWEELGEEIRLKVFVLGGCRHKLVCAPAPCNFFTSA
Kind of assay: In vitro binding to recombinantly expressed HBx protein, Biacore 3000. As to conditions: in vitro binding to HBx, in vitro binding analysis results. The procedure:
The recombinant plasmid (pET-30a-HBx) expressing HBx gene was self-constructed and preserved (Zhang H, et al. J Biomed Biotechnol, doi:10.1155/2009/289068), and then expression and purification of HBx were conducted according to above reference for the measurement of in vitro binding ability. Biacore 3000 biomolecular interaction analyzing unit (manufactured by GE Healthcare) was utilized to measure in vitro binding ability of polypeptide D-TTK001 to recombinantly expressed HBx protein. Polypeptide at different concentrations were injected for 180 seconds at a rate of 30 μL/min. In dissociation stage, HBS-EP buffer was injected for 900 seconds at a rate of 30 μL/min, then at a rate of 30 μL/min, 2 shots of 1 mM NaOH were injected for 20 seconds to regenerate the chip. All signals were calibrated using channel 1 as the reference channel. Binding measurement was conducted twice, respectively, wherein in the first measurement, HBX was injected into the channel of the coupled polypeptide and the blank channel at concentrations of 0 nM, 10 nM, 50 nM, 100 nM, 500 nM and 600 nM, respectively. Binding time was 180 seconds and dissociation time was 400 seconds. On chip surface, 1 mM NaOH was injected for 20 seconds at a rate of 30 μL/min for regeneration. In the second measurement, HBX was injected into the channel of coupled polypeptide and the blank channel at concentrations of 0 nM, 10 nM, 50 nM, 588 nM, 1 μM, and 2 μM, respectively. Binding time was 180 seconds and dissociation time was 400 seconds. On chip surface, 1 mM NaOH was injected for 20 seconds at a rate of 30 μL/min for regeneration. Results were kinetically analyzed by BIA Evaluation Software.
(In general: In SPR one partner is held on a chip, and binding of the other changes the refractive index at the surface.)

For assay [3], the system named is HepG2.2.15 cells. Kind of assay: HBeAg secretion ELISA in HepG2.2.15 cells. In kind it is cell-based. The settings on record: 0.1, 1, 10, 100 μM. The protocol: as §1, §2, §3
(iii) Plating 96-well plate. Under aseptic conditions, discard old culture medium, add 3 mL 1×PBS each time, wash twice, add 1 mL 0.05% trypsin, the cells were digested until cell rounding as observed in microscope. Add 10 mL culture medium, dispense cells, count with hemocytometer, and dilute with DMEM/F12(1:1) culture medium, add 100 μL cell suspension into each well to a cell number of 1˜2×10^3 cells/mL. […]
as §4

Assay [4] relates to HepAD38 cells. The experiment in a line: MTT assay, proliferation of HepAD38 cells. As to conditions: 0.1, 1, 10, 100 μM, 48 hrs. In kind it is cell-based. The protocol:
(1) Plating cells: suspend HepAD38 cells at exponential phase in RPMI1640 medium with 10% FBS, and plate 4000-5000 cells in a 96-well plate with 100 μL per well.
(2) Culturing cells: within 12 hrs. for adhesion of cultured cells, add different concentrations of synthesized D-TTK001 (or L-TTK001) polypeptides from Example 1 (0.1 μM, 1 μM, 10 μM and 100 μM) into 8 wells for each concentration, and incubate for 48 hrs. in common condition.
(3) Coloration: add 20 μL of MTT solution (5 mg/mL MTT in PBS buffer (pH7.4)) for each well.
(4) Incubate for 4 hrs., and carefully aspirate off the supernatant from the wells. Add 150 μL of DMSO into each well, shake for 10 min until the crystals were dissolved.
(5) Comparison: Read in an ELISA reader at 490 nm to measure the absorbance for each well. Results were calculated using Student's t-test.
On the technique in general: Tetrazolium dyes change colour on reduction, which living cells bring about.

What is called Kd is a measure of binding affinity in units of concentration.

Non-standard residues stand in square brackets, D forms with d. No end group written: not given here.

“G-S-A-V-D/M-F-S-S-K-E-R-G (GSAV[dM]FSSKERG) [D-TTK001-4]”: the “Inhibition of HBeAg secretion levels” value in assay [1] is on record as “inhibits HBeAg secretion levels of HepAD38 cells to various extents”.

In the case of “G-S-D/A-V-M-F-S-S-K-E-R-G (GS[dA]VMFSSKERG) [D-TTK001-2]”, the “Inhibition of HBeAg secretion levels” value in assay [1] is “inhibits HBeAg secretion levels of HepAD38 cells to various extents”.

As to “G-S-A-V-M-F-S-S-K-D/E-R-G (GSAVMFSSK[dE]RG) [D-TTK001-9]”, in assay [1], the “Inhibition of HBeAg secretion levels” value is listed as “inhibits HBeAg secretion levels of HepAD38 cells to various extents”.

As to “G-S-A-V-M-F-S-S-D/K-E-R-G (GSAVMFSS[dK]ERG) [D-TTK001-8]”, the “Inhibition of HBeAg secretion levels” value in assay [1] is “inhibits HBeAg secretion levels of HepAD38 cells to various extents”.

Regarding “G-S-A-V-M-F-D/S-S-K-E-R-G (GSAVMF[dS]SKERG) [D-TTK001-6]”, in assay [1], the “Inhibition of HBeAg secretion levels” value is “inhibits HBeAg secretion levels of HepAD38 cells to various extents”.

Take “GSAVMFSSKERG [L-TTK001, Gly-Ser-Ala-Val-Met-Phe-Ser-Ser-Lys-Glu-Arg-Gly, reference compound]”: in assay [2], the Kd was determined as 8 nM. The “Minimum effective dose on HBeAg secretion levels” value in assay [1] (0.1, 1, 10, 100 μM) is 10 µM; in assay [3], 10 µM. Besides, the “Minimum effective dose on growth and proliferation (MTT)” value in assay [4] was determined as 10 µM.

On to “G-S-A-D/V-M-F-S-S-K-E-R-G (GSA[dV]MFSSKERG) [D-TTK001-3]”, for which the “Inhibition of HBeAg secretion levels” value in assay [1] was “inhibits HBeAg secretion levels of HepAD38 cells to various extents”.

As for “G-S-A-V-M-F-S-S-K-E-D/R-G (GSAVMFSSKE[dR]G) [D-TTK001-10]”, the “Inhibition of HBeAg secretion levels” value in assay [1] is on record as “inhibits HBeAg secretion levels of HepAD38 cells to various extents”.

On to “G-S-A-V-M-D/F-S-S-K-E-R-G (GSAVM[dF]SSKERG) [D-TTK001-5]”, for which the “Inhibition of HBeAg secretion levels” value in assay [1] is recorded as “inhibits HBeAg secretion levels of HepAD38 cells to various extents”.

On to “G-S-A-V-M-F-S-D/S-K-E-R-G (GSAVMFS[dS]KERG) [D-TTK001-7]”, for which, in assay [1], the “Inhibition of HBeAg secretion levels” value is recorded as “inhibits HBeAg secretion levels of HepAD38 cells to various extents”.

“G-D/S-A-V-M-F-S-S-K-E-R-G (G[dS]AVMFSSKERG) [D-TTK001-1]”: the “Inhibition of HBeAg secretion levels” value in assay [1] was “inhibits HBeAg secretion levels of HepAD38 cells to various extents”.
